Molecular target: canine TRPM8 (Canis lupus familiaris, UniProt Q1A7N1)
Assay: In Vitro Canine TRPM8 Functional Assay (intracellular Ca2+ fluorescence, icilin challenge)
Assay type: cell-based
Conditions: HEK293 cells stably expressing canine TRPM8; for inhibition at 0.2 µM: HEK293, @ 0.2 μM, read-out: % Inh (%) @ 0.2 μM; for IC50: icilin at ~80% maximal response
Description: The functional activity of compounds of the formula (I) was determined by measuring changes in intracellular calcium concentration using a Ca^2+-sensitive fluorescent dye. The changes in fluorescent signal were monitored by a fluorescence plate reader, either a FLIPR™ (Molecular Devices) or FDSS (Hamamatsu).
At 24 hrs prior to assay, HEK293 cells stably expressing canine TRPM8 were seeded in culture medium in black wall, clear-base poly-D-lysine coated 384-well plates (BD Biosciences, NJ, USA) and grown overnight in 5% CO2 at 37° C. On assay day, growth media was removed and cells were loaded with Calcium 3 Dye (Molecular Devices) for 35 min at 37° C., under 5% CO2 and then for 25 min at room temperature and atmosphere. Subsequently, cells were tested for agonist-induced increases in intracellular Ca^2+ levels using FLIPR™ or FDSS. Cells were challenged with a compound of the Formula (I) (at varying concentrations) and intracellular Ca^2+ was measured for 5 min prior to the addition of icilin to all wells to achieve a final concentration that produces approximately an 80% maximal response. EC50 or IC50 values for compounds of the present invention were determined from eight-point dose-response studies. Curves were generated using the average of quadruplicate wells for each data point.

Sequence of canine TRPM8 (Q1A7N1 1-1104): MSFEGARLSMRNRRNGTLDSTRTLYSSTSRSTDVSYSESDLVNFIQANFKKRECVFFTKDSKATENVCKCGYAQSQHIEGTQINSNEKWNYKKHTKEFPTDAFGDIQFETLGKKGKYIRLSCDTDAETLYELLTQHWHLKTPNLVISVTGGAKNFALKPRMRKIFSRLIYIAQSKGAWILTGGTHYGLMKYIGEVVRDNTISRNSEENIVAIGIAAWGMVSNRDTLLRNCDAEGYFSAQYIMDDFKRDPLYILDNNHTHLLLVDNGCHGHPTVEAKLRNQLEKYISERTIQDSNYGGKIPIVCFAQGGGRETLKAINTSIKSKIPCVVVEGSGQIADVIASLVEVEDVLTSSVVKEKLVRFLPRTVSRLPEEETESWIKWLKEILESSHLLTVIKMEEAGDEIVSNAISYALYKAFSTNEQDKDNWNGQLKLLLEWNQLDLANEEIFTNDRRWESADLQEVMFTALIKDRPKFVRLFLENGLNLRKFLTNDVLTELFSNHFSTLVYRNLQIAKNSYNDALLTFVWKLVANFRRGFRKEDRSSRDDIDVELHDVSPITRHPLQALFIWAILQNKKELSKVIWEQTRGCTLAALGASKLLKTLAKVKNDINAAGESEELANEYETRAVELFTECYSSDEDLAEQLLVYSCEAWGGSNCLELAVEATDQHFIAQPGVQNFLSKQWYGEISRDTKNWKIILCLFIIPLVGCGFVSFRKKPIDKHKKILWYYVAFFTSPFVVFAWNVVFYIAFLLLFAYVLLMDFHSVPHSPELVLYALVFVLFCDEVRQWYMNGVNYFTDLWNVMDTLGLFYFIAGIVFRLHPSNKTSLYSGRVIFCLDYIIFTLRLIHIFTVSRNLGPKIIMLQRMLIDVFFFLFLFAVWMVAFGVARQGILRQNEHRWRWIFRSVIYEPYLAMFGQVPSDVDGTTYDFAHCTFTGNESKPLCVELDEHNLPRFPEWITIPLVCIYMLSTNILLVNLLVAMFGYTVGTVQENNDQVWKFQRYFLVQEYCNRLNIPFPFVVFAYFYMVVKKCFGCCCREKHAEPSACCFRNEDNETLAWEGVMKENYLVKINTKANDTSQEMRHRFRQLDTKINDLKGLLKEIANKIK

| inhibition at 0.2 µM | IC50 | EC50 | SMILES | % Inh (%) @ 0.2 μM |
| --- | --- | --- | --- | --- |
| 99% | 0.0241 µM | – | CCc1c(N(CCC2CC2)S(=O)(=O)c2ccccc2)nc2c(C(F)(F)F)cccn12 [Compound 63, N-(2-Cyclopropylethyl)-N-(3-ethyl-8-trifluoromethylimidazo[1,2-a]pyridin-2-yl)benzenesulfonamide] | – |
| 99% | 0.022 µM | – | CCc1c(N(CCCCC(F)(F)F)S(=O)(=O)c2ccccc2)nc2c(C(F)(F)F)cccn12 [Compound 64] | – |
| 72% | 0.0628 µM | – | CCc1c(N(CC2CC2)S(=O)(=O)c2ccccc2)nc2c(C(F)(F)F)cccn12 [Compound 65] | – |
| 83% | – | – | CCc1c(N(CCC(F)(F)F)S(=O)(=O)c2ccccc2)nc2c(C(F)(F)F)cccn12 [Compound 66] | – |
| 96% | 0.0621 µM | – | Cc1ccn2c(C)c(N(Cc3ccc(OC(F)(F)F)cc3)S(=O)(=O)c3ccc(F)cc3)nc2c1 [Compound 67] | – |
| 100% | 0.0416 µM | – | Cc1ccc2nc(N(Cc3ccc(C(F)(F)F)c(F)c3)S(=O)(=O)c3ccc(F)cc3)c(C)n2c1 [Compound 68] | – |
| 101% | 0.00821 µM | – | O=S(=O)(c1ccccc1)N(Cc1ccc(C(F)(F)F)c(F)c1)c1nc2ccccn2c1C1CC1 [Compound 70] | – |
| 101% | 0.0215 µM | – | O=S(=O)(c1ccccc1)N(Cc1ccc(OC(F)(F)F)cc1)c1nc2ccccn2c1C1CC1 [Compound 71] | – |
| 101% | 0.0113 µM | – | O=S(=O)(c1ccccc1)N(Cc1ccc(C(F)(F)F)cc1)c1nc2ccccn2c1C1CC1 [Compound 72] | – |
| 100% | – | – | O=S(=O)(c1ccccc1)N(Cc1cccc(C(F)(F)F)c1)c1nc2ccccn2c1C1CC1 [Compound 73] | – |
| 74% | 0.0626 µM | – | O=S(=O)(c1ccc(N2CCOCC2)nc1)N(Cc1ccc(C(F)(F)F)c(F)c1)c1nc2ccc(Cl)cn2c1Cl [Compound 74] | – |
| 99% | 0.00194 µM | – | O=S(=O)(c1ccc(-n2cccn2)cc1)N(Cc1ccc(C(F)(F)F)c(F)c1)c1nc2ccccn2c1Br [Compound 75] | – |
| 72% | 0.0705 µM | – | O=S(=O)(c1ccc(N2CCOCC2)nc1)N(Cc1ccc(OC(F)(F)F)cc1)c1nc2ccc(Cl)cn2c1Cl [Compound 76] | – |
| 100% | 0.00227 µM | – | O=S(=O)(c1ccc(-n2cccn2)cc1)N(Cc1ccc(OC(F)(F)F)cc1)c1nc2ccccn2c1Br [Compound 77] | – |
| 26% | – | – | O=S(=O)(c1ccc(N2CCOCC2)nc1)N(Cc1ccc(F)c(C(F)(F)F)c1)c1nc2ccc(Cl)cn2c1Cl [Compound 78] | – |
| 99% | 0.00317 µM | – | O=S(=O)(c1ccc(-n2cccn2)cc1)N(Cc1ccc(F)c(C(F)(F)F)c1)c1nc2ccccn2c1Br [Compound 79] | – |
| 99% | 0.0121 µM | – | CCc1c(N(Cc2ccc(C(F)(F)F)c(F)c2)S(=O)(=O)c2ccccc2)nc2cccc(C)n12 [Compound 80] | – |
| 100% | 0.0142 µM | – | CCc1c(N(Cc2ccc(F)c(C(F)(F)F)c2)S(=O)(=O)c2ccccc2)nc2ccc(Cl)cn12 [Compound 82] | – |
| 87% | 0.0746 µM | – | O=S(=O)(c1ccc(N2CCOCC2)nc1)N(Cc1ccccc1)c1nc2ccccn2c1Br [Compound 83] | – |
| 100% | 0.0115 µM | – | O=S(=O)(c1ccc(N2CCOCC2)nc1)N(Cc1ccc(OC(F)(F)F)cc1)c1nc2ccccn2c1Br [Compound 84] | – |
| 100% | 0.0312 µM | – | O=S(=O)(c1ccc(N2CCOCC2)nc1)N(Cc1ccc(C(F)(F)F)c(F)c1)c1nc2ccccn2c1Br [Compound 85] | – |
| 99% | 0.0107 µM | – | O=S(=O)(c1ccc(N2CCOCC2)nc1)N(Cc1ccc(F)c(C(F)(F)F)c1)c1nc2ccccn2c1Br [Compound 86] | – |
| 86% | 0.0863 µM | – | CCc1c(N(Cc2ccc(C(F)(F)F)c(F)c2)S(=O)(=O)c2ccc(N3CCOCC3)nc2)nc2ccc(Cl)cn12 [Compound 87] | – |

| inhibition at 0.2 µM | IC50 | EC50 | SMILES | % Inh (%) @ 0.2 μM |
| --- | --- | --- | --- | --- |
| 100% | 0.0414 µM | – | CCc1c(N(Cc2ccc(C(F)(F)F)c(F)c2)S(=O)(=O)c2ccc(-n3cccn3)cc2)nc2ccc(Cl)cn12 [Compound 88] | – |
| 99% | 0.025 µM | – | CCc1c(N(Cc2ccc(OC(F)(F)F)cc2)S(=O)(=O)c2ccc(-n3cccn3)cc2)nc2ccc(Cl)cn12 [Compound 89] | – |
| 99% | 0.0269 µM | – | O=S(=O)(c1ccc(N2CCOCC2)nc1)N(Cc1ccc(F)c(C(F)(F)F)c1)c1nc2ccccn2c1Cl [Compound 90, N-(3-Chloroimidazo[1,2-a]pyridin-2-yl)-N-(4-fluoro-3-trifluoromethylbenzyl)-6-morpholin-4-yl-pyridine-3-sulfonamide] | – |
| 99% | 0.0416 µM | – | O=S(=O)(c1ccc(N2CCOCC2)nc1)N(Cc1ccc(C(F)(F)F)c(F)c1)c1nc2ccccn2c1Cl [Compound 91] | – |
| 99% | 0.025 µM | – | O=S(=O)(c1ccc(N2CCOCC2)nc1)N(Cc1ccc(OC(F)(F)F)cc1)c1nc2ccccn2c1Cl [Compound 92] | – |
| 98% | 0.0269 µM | – | O=S(=O)(c1ccc(N2CCOCC2)nc1)N(Cc1ccc(C(F)(F)F)cc1)c1nc2ccccn2c1Cl [Compound 93] | – |
| 97% | 0.0484 µM | – | O=S(=O)(c1ccc(N2CCOCC2)nc1)N(Cc1cccc(C(F)(F)F)c1)c1nc2ccccn2c1Cl [Compound 94] | – |
| 99% | 0.007 µM | – | O=S(=O)(c1ccc(-n2cccn2)cc1)N(Cc1ccc(F)c(C(F)(F)F)c1)c1nc2ccccn2c1Cl [Compound 95] | – |
| 100% | 0.0055 µM | – | O=S(=O)(c1ccc(-n2cccn2)cc1)N(Cc1ccc(C(F)(F)F)c(F)c1)c1nc2ccccn2c1Cl [Compound 96] | – |
| 99% | 0.00848 µM | – | O=S(=O)(c1ccc(-n2cccn2)cc1)N(Cc1ccc(OC(F)(F)F)cc1)c1nc2ccccn2c1Cl [Compound 97] | – |
| 99% | 0.00404 µM | – | O=S(=O)(c1ccc(-n2cccn2)cc1)N(Cc1ccc(C(F)(F)F)cc1)c1nc2ccccn2c1Cl [Compound 98] | – |
| 99% | 0.0151 µM | – | O=S(=O)(c1ccc(-n2cccn2)cc1)N(Cc1cccc(C(F)(F)F)c1)c1nc2ccccn2c1Cl [Compound 99] | – |
| 31% | – | – | Cc1c(N(Cc2ccc(C(F)(F)F)c(F)c2)S(=O)(=O)c2ccccc2)nc2ccc(C(F)(F)F)cn12 [Compound 100, N-(3-Fluoro-4-trifluoromethylbenzyl)-N-(3-methyl-6-trifluoromethylimidazo[1,2-a]pyridin-2-yl)benzenesulfonamide] | – |
| 22% | – | – | Cc1c(N(Cc2ccc(C(F)(F)F)c(F)c2)S(=O)(=O)c2ccccc2)nc2cc(C(F)(F)F)ccn12 [Compound 101] | – |
| 100% | 0.0218 µM | – | Cc1c(N(Cc2ccc(F)c(C(F)(F)F)c2)S(=O)(=O)c2ccc(-n3cccn3)cc2)nc2ccc(Cl)cn12 [Compound 102, N-(6-chloro-3-methylimidazo[1,2-a]pyridin-2-yl)-N-(4-fluoro-3-trifluoromethylbenzyl)-4-(1H-pyrazol-1-yl)benzenesulfonamide] | – |
| 98% | 0.0245 µM | – | Cc1c(N(Cc2ccc(C(F)(F)F)c(F)c2)S(=O)(=O)c2ccc(-n3cccn3)cc2)nc2ccc(Cl)cn12 [Compound 103] | – |
| 93% | 0.0516 µM | – | Cc1c(N(Cc2ccc(OC(F)(F)F)cc2)S(=O)(=O)c2ccc(-n3cccn3)cc2)nc2ccc(Cl)cn12 [Compound 104] | – |
| 98% | 0.0303 µM | – | Cc1c(N(Cc2ccc(C(F)(F)F)cc2)S(=O)(=O)c2ccc(-n3cccn3)cc2)nc2ccc(Cl)cn12 [Compound 105] | – |
| – | – | 0.093 µM | Cc1c(N(Cc2ccc(OC(F)(F)F)cc2)S(=O)(=O)CCN(CC(C)C)CC(C)C)nc2cc(C(F)(F)F)ccn12 [Compound 106, N-(4-Trifluoromethoxybenzyl)-N-(7-trifluoromethyl-3-methylimidazo[1,2-a]pyridin-2-yl)-2-(N,N-diisobutylamino)ethylsulfonamide] | – |
| 82% | 0.0572 µM | – | COC(=O)c1ccc(S(=O)(=O)N(Cc2ccc(OC(F)(F)F)cc2)c2nc3ccc(Cl)cn3c2C)cc1 [Compound 110, Methyl 4-(N-(6-Chloro-3-methylimidazo[1,2-a]pyridin-2-yl)-N-(4-trifluoromethoxybenzyl)sulfamoyl)benzoate] | – |
| 73% | 0.0815 µM | – | COC(=O)c1ccc(S(=O)(=O)N(Cc2ccc(F)c(F)c2)c2nc3ccc(Cl)cn3c2C)cc1 [Compound 111] | – |
| 83% | 0.0821 µM | – | COC(=O)c1ccc(S(=O)(=O)N(Cc2ccc(F)c(C(F)(F)F)c2)c2nc3ccc(Cl)cn3c2C)cc1 [Compound 112] | – |

| SMILES | inhibition at 0.2 µM | IC50 | EC50 | % Inh (%) @ 0.2 μM |
| --- | --- | --- | --- | --- |
| O=S(=O)(c1ccccc1)N(Cc1ccc(F)c(C(F)(F)F)c1)c1nc2ccccn2c1C1CC1 [Compound 69] | – | 0.0282 µM | – | 101% |
| COC(=O)c1ccc(S(=O)(=O)N(Cc2ccc(OC(F)(F)F)cc2)c2nc3ccccn3c2C(C)C)cc1 [Compound 108] | – | 0.0104 µM | – | 101% |

— patent US9067935B2 (Janssen Pharmaceutica, NV, priority 2010, dated 2015)
